# Assay results from patent US11166970B2, “Composition for preventing or treating neurological disorder comprising aucubin” (University-Industry Cooperation Group of Kyung Hee …, priority 2017, dated 2021).
# Experiments:
# [1] = system: GAD65/67; assay: Immunoblot analysis: expression of GAD65/67 (GABAergic neuron-specific marker); format: cell-based, rat; details: relative to β-actin, aucubin 0.01-10 μM vs untreated, FIG. 3A, C
# From the text: (§1) In order to culture neurons, cells were obtained from the brain of an E16 rat embryo according to a method known in the art (Lim et al., 2007; Jo et al., 2007). Specifically, hippocampal eminence was isolated from the forebrain of the E16 rat embryo, and cells were mechanically isolated from the thus-obtained hippocampal eminence tissue by using Ca^2+/Mg^2+-free HBSS(Hanks' Balanced Salt Solution, Invitrogen). PAX6-GFP expressing neuronal precursor cells (NPCs) were isolated from the sub ventricular zone of a PAX6-GFP transgenic mouse. […]
# (§2) Specifically, cells (30,000 cells/cm^2), which were cultured in a 60 mm petri dish coated with 15 μg/mL of poly-L-ornithine (Sigma-Aldrich, USA) and 1 μg/mL of fibronectin (Sigma-Aldrich, USA), were used. […] The protein quantification was performed using a Bradford protein assay kit (Bio-Rad, Hercules, Calif., USA).
# (§3) Subsequently, a mixture of 20 μg of the proteins and a loading buffer (Biosesang Co., Seoul, Korea) was boiled at 100° C. for 10 minutes to denature the proteins. […] Thereafter, signals were detected after culturing the proteins with a secondary antibody.
# (§4) In order to verify the effect of aucubin on enhancing the survival rates of GABAergic and glutamatergic neurons, the cells were treated with aucubin, followed by quantifying the expression levels of each cell type marker by an immunoblot method. […]
# [2] = system: GABAergic neurons expressing a GAD65/67 marker; assay: Immunofluorescence staining: survival rate of GABAergic neurons expressing a GAD65/67 marker; format: cell-based, rat; details: aucubin 0.01-10 μM vs cells not treated with aucubin; survival rate relative to total number of cells; FIG. 1A
# From the text: (§5) In order to culture neurons, cells were obtained from the brain of an E16 rat embryo according to a method known in the art (Lim et al., 2007; Jo et al., 2007). Specifically, hippocampal eminence was isolated from the forebrain of the E16 rat embryo, and cells were mechanically isolated from the thus-obtained hippocampal eminence tissue by using Ca^2+/Mg^2+-free HBSS(Hanks' Balanced Salt Solution, Invitrogen). PAX6-GFP expressing neuronal precursor cells (NPCs) were isolated from the sub ventricular zone of a PAX6-GFP transgenic mouse.
# (§6) The culture of cells was supplemented with 10 ng/mL or 20 ng/mL of bFGF (basic fibroblast growth factor, Invitrogen), and culturing was performed for 3 days in a serum-free N2 medium. After the confluency of cells reaches 70% to 80% by culturing for 3 to 4 days, the cells were subjected to passaging, and then divided and seeded according to an experimental use. Subsequently, the cells were cultured for 7 days in a N2 medium where FGF is removed, allowing neurons to be sufficiently differentiated. The cells were treated with aucubin (Sigma) at varying concentrations (0 μM, 0.01 μM, 0.1 μM, 1 μM, or 10 μM) in a bFGF-free N2 medium. […]
# (§7) Thereafter, the number of the stained cells was counted and the survival rates thereof were shown in a graph. […]
# [3] = system: cells synthesizing GABA among the cells expressing Pax6-GFP; assay: Immunofluorescence staining: ratio of cells synthesizing GABA among cells expressing Pax6-GFP; format: cell-based; details: Pax6-GFP transgenic mouse neuronal precursor cells; aucubin 0.01-10 μM vs untreated; FIG. 4C
# From the text: as §5, §6
# (§8) For GFP-fluorescence staining, an anti-GFP (rabbit anti-GFP antibody, 1:500, Merck, Germany) primary antibody was used. […]
# [4] = system: cholinergic neurons expressing a ChAT-GFP marker; assay: Immunofluorescence staining: survival rate of cholinergic neurons expressing a ChAT-GFP marker; format: cell-based; details: ChAT-GFP transgenic mouse cells; aucubin 0.01-10 μM vs untreated; relative to total DAPI-stained cells; FIG. 2b
# Experimental: as §6, §8
# (§9) Thereafter, the number of the stained cells was counted, and compared with the number of the cells expressing a GABAergic neuron-specific marker (GAD65/67), and the survival rates thereof were shown in a graph.
# (§10) Specifically, the cells cultured by the method according to Experimental Example 1 were treated with aucubin at varying concentrations of 0 μM, 0.01 μM, 0.1 μM, 1 μM, and 10 μM, respectively. The number of GABAergic neurons expressing a GAD65/67 marker and the number of cholinergic neuron expressing a ChAT-GFP marker were shown in graphs as survival rates relative to the total number of cells which were fluorescence stained with DAPI.
# [5] = system: neuronal precursor cells expressing Pax6-GFP; assay: Immunofluorescence staining: number of neuronal precursor cells expressing Pax6-GFP; format: cell-based; details: Pax6-GFP transgenic mouse neuronal precursor cells; aucubin 0.01-10 μM vs untreated; FIG. 4A, B
# From the text: as §5, §6, §8
# [6] = system: GABAergic neurons expressing a GAD65/67 marker; assay: Immunofluorescence staining: survival rate of GABAergic neurons in ChAT-GFP transgenic mouse culture; format: cell-based; details: ChAT-GFP transgenic mouse cells; aucubin 0.01-10 μM vs untreated; relative to total DAPI-stained cells; FIG. 2b
# Experimental: as §6, §8, §9, §10
# [7] = system: glutamatergic neurons expressing a vGluT1 marker; assay: Immunofluorescence staining: survival rate of glutamatergic neurons expressing a vGluT1 marker; format: cell-based, rat; details: aucubin 0.01-10 μM vs cells not treated with aucubin; increase remarkably lower than for GABAergic neurons; FIG. 1B
# From the text: as §5, §6, §7
# [8] = system: vGluT1; assay: Immunoblot analysis: expression of vGluT1 (glutamatergic neuron-specific marker); format: cell-based, rat; details: relative to β-actin, aucubin 0.01-10 μM vs untreated, remarkably lower than GAD65/67, FIG. 3A, D
# From the text: as §1, §2, §3, §4
# [9] = system: NeuN; assay: Immunoblot analysis: expression of NeuN (mature neuron-specific marker); format: cell-based, rat; details: relative to β-actin, aucubin 0.01-10 μM vs untreated, FIG. 3A, B
# From the text: as §1, §2, §3, §4
compound,measurement,setting,value
OCC1=C[C@@H](O)[C@@H]2C=CO[C@@H](O[C@@H]3O[C@H](CO)[C@@H](O)[C@H](O)[C@H]3O)[C@H]12 [aucubin],increase in expression of GAD65/67 (GABAergic neuron-specific marker),[1],up to 5 fold
same,increase in survival rate of GABAergic neurons expressing a GAD67/65 marker,[2],up to 2 fold
same,increase in ratio of cells synthesizing GABA among the cells expressing Pax6-GFP,[3],≥ 1.5 fold
same,survival rate of cholinergic cells expressing a ChAT-GFP marker,[4],the increase rate thereof was not significant
same,increase in number of cells which express Pax6-GFP,[5],about 2 fold
same,increase in survival rate of GABAergic neurons expressing a GAD65/67 marker,[6],~2 fold
same,survival rate of excitatory neurons expressing vGluT1,[7],significantly increased
same,expression of vGluT1 (glutamatergic neuron-specific marker),[8],significantly increased
same,expression of NeuN (mature neuron-specific marker),[9],remarkably increased
